Consider 5 compounds from ChEMBL document CHEMBL1143866, “Syntheses of N3-substituted thymine acyclic nucleoside phosphonates and a comparison of their inhibitory effect towards thymidine phosphorylase” (Bioorg Med Chem Lett, 2008).

Test [1] deals with Thymidine phosphorylase (Escherichia coli K-12) (UniProt P07650). Description: Inhibition of Escherichia coli thymidine phosphorylase assessed as ratio of phosphorolysis in presence of drug to control at 10 umol/l.
In test [2] the target is T1, Thymidine phosphorylase (Rattus norvegicus) (UniProt Q5FVR2).
T1 sequence (whole entry): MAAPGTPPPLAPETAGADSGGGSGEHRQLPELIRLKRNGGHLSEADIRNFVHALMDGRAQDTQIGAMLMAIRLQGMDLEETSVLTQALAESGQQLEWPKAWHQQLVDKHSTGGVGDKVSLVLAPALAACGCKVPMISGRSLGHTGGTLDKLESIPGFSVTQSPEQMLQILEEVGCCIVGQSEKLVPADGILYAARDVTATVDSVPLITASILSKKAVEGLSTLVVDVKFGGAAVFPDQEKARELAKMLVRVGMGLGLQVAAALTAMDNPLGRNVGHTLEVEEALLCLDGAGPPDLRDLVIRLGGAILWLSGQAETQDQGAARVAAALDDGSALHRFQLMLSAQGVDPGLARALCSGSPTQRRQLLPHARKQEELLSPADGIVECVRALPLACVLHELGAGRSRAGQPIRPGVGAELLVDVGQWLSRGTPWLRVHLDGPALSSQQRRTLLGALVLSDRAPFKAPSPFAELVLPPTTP
Description: Inhibition of Sprague-Dawley rat lymphoma thymidine phosphorylase assessed as ratio of phosphorolysis in presence of drug to control at 10 umol/l.

Sequence of Thymidine phosphorylase (Escherichia coli K-12) (P07650 whole entry, looked up): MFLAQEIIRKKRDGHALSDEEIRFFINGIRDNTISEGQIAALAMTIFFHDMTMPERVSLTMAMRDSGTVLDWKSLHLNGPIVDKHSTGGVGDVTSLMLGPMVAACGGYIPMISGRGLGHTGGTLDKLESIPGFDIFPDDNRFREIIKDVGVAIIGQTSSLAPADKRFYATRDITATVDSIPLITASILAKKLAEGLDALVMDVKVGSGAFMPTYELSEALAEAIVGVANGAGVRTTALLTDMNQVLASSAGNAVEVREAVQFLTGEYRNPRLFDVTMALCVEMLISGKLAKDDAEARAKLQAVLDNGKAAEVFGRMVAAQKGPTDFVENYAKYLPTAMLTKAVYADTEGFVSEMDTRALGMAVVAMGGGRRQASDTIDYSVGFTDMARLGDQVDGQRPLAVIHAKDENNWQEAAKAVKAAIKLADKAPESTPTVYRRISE

In the case of `Cc1c[nH]c(=O)n(C[C@@H](CO)OCP(=O)(O)O)c1=O`, the Ratio in test [1] came to 0.94.

With `Cc1c[nH]c(=O)n(C[C@H](CF)OCP(=O)(O)O)c1=O`, the Ratio stood at 0.98 in test [1] and 0.75 in test [2].

For the compound `Cc1c[nH]c(=O)n(C[C@@H](CF)OCP(=O)(O)O)c1=O`, the Ratio in test [1] is 0.93.

As to `Cc1c[nH]c(=O)n(CCOCP(=O)(O)O)c1=O`, the Ratio in test [1] came out at 1.07; in test [2] it was 1.44.

As for `Cc1c[nH]c(=O)n(C[C@H](CO)OCP(=O)(O)O)c1=O`, the Ratio is 1.01 in test [1] and 0.78 in test [2].
